Data reported in PubChem BioAssay AID1745844 (Carcinogenic Potency Database (CPDB), 2022).
The source made the active and inactive calls. No rule for the calls is given here.

Tested on: rodent lifetime carcinogenesis bioassay, tumor incidence TD50
Assay: carcinogenic potency in animals, long-term in vivo studies, CPDB compilation (AID 1745844)
Conditions: mouse

SMILES | TD50 (strain B6AKF1, females, oral dosing, site: any site (literature study), lesion: several types, types named in the paper, dosed 76 weeks, study length 76 weeks) | TD50 (strain B6AKF1, females, oral dosing, site: liver, lesion: hepatoma, dosed 76 weeks, study length 76 weeks) | carcinogen call (strain B6AKF1, females, oral dosing, site: lung, lesion: adenoma, dosed 76 weeks, study length 76 weeks) | carcinogen call (strain B6AKF1, males, oral dosing, site: any site (literature study), lesion: several types, types named in the paper, dosed 76 weeks, study length 76 weeks) | carcinogen call (strain B6AKF1, males, oral dosing, site: liver, lesion: hepatoma, dosed 76 weeks, study length 76 weeks) | carcinogen call (strain B6AKF1, males, oral dosing, site: lung, lesion: adenoma, dosed 76 weeks, study length 76 weeks) | TD50 (strain B6C3F1, females, oral dosing, site: any site (literature study), lesion: several types, types named in the paper, dosed 76 weeks, study length 76 weeks) | carcinogen call (strain B6C3F1, females, oral dosing, site: liver, lesion: hepatoma, dosed 76 weeks, study length 76 weeks) | carcinogen call (strain B6C3F1, females, oral dosing, site: lung, lesion: several types, types named in the paper, dosed 76 weeks, study length 76 weeks) | TD50 (strain B6C3F1, males, oral dosing, site: any site (literature study), lesion: several types, types named in the paper, dosed 76 weeks, study length 76 weeks) | TD50 (strain B6C3F1, males, oral dosing, site: liver, lesion: hepatoma, dosed 76 weeks, study length 76 weeks) | TD50 (strain B6C3F1, males, oral dosing, site: lung, lesion: adenoma, dosed 76 weeks, study length 76 weeks) | TD50 (strain C3H (MTV+), females, in feed, site: mammary gland, lesion: adenocarcinoma, dosed 104 weeks, study length 104 weeks) [mg/kg/day]
O=S(=O)(c1ccc(Cl)cc1)c1cc(Cl)c(Cl)cc1Cl | 233 mg/kg/day (inactive) | 233 mg/kg/day (inactive) | negative (inactive) | negative (inactive) | negative (inactive) | negative (inactive) | 220 mg/kg/day (inactive) | negative (inactive) | negative (inactive) | 35.6 mg/kg/day (inactive) | 46.2 mg/kg/day (inactive) | 205 mg/kg/day (inactive) | –
C=C1CC[C@H](O)C/C1=C/C=C1\CCC[C@]2(C)[C@@H]([C@H](C)/C=C/[C@H](C)C(C)C)CC[C@@H]12 | – | – | – | – | – | – | – | – | – | – | – | – | 39.6
